Several values for one entry are separate records, joined by “and”; a condition that tells them apart may be missing. Equal values may be shown once. Toxic doses and inconclusive results are not listed. How the source made its calls: active means survival T/C of 150% or more; inactive means T/C below 125% in these data. Square brackets hold non-standard residues; d marks the D form. Peptide text beside a SMILES is read from it. * marks the point of attachment. Cbz = O=C(OCc1ccccc1)*; Nva = CCC[CH](N)C(=O)O
System: P388 leukemia ip, CD2F1 mice, survival T/C
Experiment: NCI In Vivo Anticancer Drug Screen. Data for tumor model P388 Leukemia (intraperitoneal) in CD2F1 (CDF1) mice
Details: endpoint: median survival time, higher = longer survival
Outline: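 Mice carrying the transplanted tumor received test compound or vehicle. Survival was recorded in each group, and the value is the treated-group measurement divided by that of the vehicle-treated control group.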

[1] = dose: 60.0 mg/kg/injection, schedule: Q01DX005 (ip), vehicle: saline with Tween-80
[2] = dose: 120.0 mg/kg/injection, schedule: Q01DX005 (ip), vehicle: saline with Tween-80
[3] = dose: 240.0 mg/kg/injection, schedule: Q01DX005 (ip), vehicle: saline with Tween-80
[4] = dose: 50.0 mg/kg/injection, schedule: Q01DX009 (ip), vehicle: saline with Tween-80
[5] = dose: 50.0 mg/kg/injection, schedule: Q01DX005 (ip), vehicle: Klucel (hydroxypropylcellulose) (HPC)
[6] = dose: 100.0 mg/kg/injection, schedule: Q01DX005 (ip), vehicle: Klucel (hydroxypropylcellulose) (HPC)
[7] = dose: 200.0 mg/kg/injection, schedule: Q01DX005 (ip), vehicle: Klucel (hydroxypropylcellulose) (HPC)

Measured: T/C

NC(=S)N/N=C/c1ccc(O)cn1
active: dose: 18.8 mg/kg/injection, schedule: Q01DX009 (ip), vehicle: other 152 % of control and 185 % of control | dose: 18.8 mg/kg/injection, schedule: Q01DX009 (ip), vehicle: saline with Tween-80 156 % of control | dose: 37.5 mg/kg/injection, schedule: Q01DX009 (ip), vehicle: other 175 % of control and 221 % of control | dose: 37.5 mg/kg/injection, schedule: Q01DX009 (ip), vehicle: saline 172 % of control | dose: 75.0 mg/kg/injection, schedule: Q01DX009 (ip), vehicle: saline with Tween-80 173 % of control | dose: 75.0 mg/kg/injection, schedule: Q01DX009 (ip), vehicle: saline 160 % of control
inactive: dose: 25.0 mg/kg/injection, schedule: Q01DX001 (ip), vehicle: Klucel (hydroxypropylcellulose) (HPC) 118 % of control and 119 % of control | dose: 25.0 mg/kg/injection, schedule: Q04DX002 (ip), vehicle: Klucel (hydroxypropylcellulose) (HPC) 113 % of control and 116 % of control | dose: 25.0 mg/kg/injection, schedule: Q04DX003 (ip), vehicle: Klucel (hydroxypropylcellulose) (HPC) 115 % of control

O=C1c2ccccc2C(=O)C23OC12C1C=CC3CC1 (configuration not stated)
inactive: dose: 50.0 mg/kg/injection, schedule: Q01DX001 (ip), vehicle: Klucel (hydroxypropylcellulose) (HPC) 94 % of control | dose: 100.0 mg/kg/injection, schedule: Q01DX001 (ip), vehicle: Klucel (hydroxypropylcellulose) (HPC) 91 % of control | dose: 200.0 mg/kg/injection, schedule: Q01DX001 (ip), vehicle: Klucel (hydroxypropylcellulose) (HPC) 93 % of control

c1ccc2c(Oc3c4ccccc4nc4ccccc34)c3ccccc3nc2c1
inactive: dose: 50.0 mg/kg/injection, schedule: Q01DX005 (ip), vehicle: saline with Tween-80 95 % of control | dose: 100.0 mg/kg/injection, schedule: Q01DX005 (ip), vehicle: saline with Tween-80 88 % of control | dose: 200.0 mg/kg/injection, schedule: Q01DX005 (ip), vehicle: saline with Tween-80 90 % of control

O=C(N1CCCCC1Cc1ccccc1)C(Cl)(Cl)Cl (configuration not stated)
inactive: dose: 30.0 mg/kg/injection, schedule: Q01DX005 (ip), vehicle: Klucel (hydroxypropylcellulose) (HPC) 101 % of control | dose: 60.0 mg/kg/injection, schedule: Q01DX005 (ip), vehicle: Klucel (hydroxypropylcellulose) (HPC) 101 % of control

Cn1c(=O)c(C#N)c2n(C)c3ccccc3n2c1=O
inactive: [1] 93 % of control | [2] 89 % of control | [3] 89 % of control

COc1cc([N+](=O)[O-])ccc1NC(=O)Nc1nccs1
inactive: [4] 93 % of control | dose: 100.0 mg/kg/injection, schedule: Q01DX009 (ip), vehicle: saline with Tween-80 101 % of control | dose: 200.0 mg/kg/injection, schedule: Q01DX009 (ip), vehicle: saline with Tween-80 99 % of control

CN(C)c1nc(Cl)nc2c1nc(Cl)n2C1CCCCO1 (configuration not stated)
inactive: [5] 93 % of control | [6] 90 % of control | [7] 102 % of control

CC(C)NCCCNC(=S)C(=S)NCCCNC(C)C
inactive: [5] 100 % of control | [6] 94 % of control

COC(=O)c1ccccc1N=NN(C)CC1OC2OC(C)(C)OC2C1OC (configuration not stated)
inactive: dose: 100.0 mg/kg/injection, schedule: Q01DX001 (ip), vehicle: saline with Tween-80 99 % of control | dose: 200.0 mg/kg/injection, schedule: Q01DX001 (ip), vehicle: saline with Tween-80 99 % of control | dose: 400.0 mg/kg/injection, schedule: Q01DX001 (ip), vehicle: saline with Tween-80 97 % of control

CCCCOc1ccc2nc(C)cc(N=[N+]=[N-])c2c1
inactive: dose: 30.0 mg/kg/injection, schedule: Q01DX005 (ip), vehicle: saline with Tween-80 94 % of control | [1] 86 % of control and 94 % of control | [2] 97 % of control | [3] 92 % of control

C[C@@H]1CC=C[C@@H](NC(=O)OCc2ccccc2)[C@H]1C=O
inactive: [1] 103 % of control | [2] 99 % of control | [3] 98 % of control

CC(=O)O.[In]
inactive: dose: 0.1 mg/mouse/injection, schedule: Q01DX020 (oral), vehicle: saline with Tween-80 100 % of control

COCCOC(=O)NCP(Cl)(CNC(=O)OCCOC)(CNC(=O)OCCOC)CNC(=O)OCCOC
inactive: dose: 50.0 mg/kg/injection, schedule: Q01DX009 (ip), vehicle: saline 100 % of control | dose: 100.0 mg/kg/injection, schedule: Q01DX009 (ip), vehicle: saline 99 % of control | dose: 200.0 mg/kg/injection, schedule: Q01DX009 (ip), vehicle: saline 105 % of control

CC(C)(C(=O)O)C(C)(C)C(=O)O
inactive: dose: 1.56 mg/kg/injection, schedule: Q01DX001 (ip), vehicle: saline 102 % of control | dose: 3.12 mg/kg/injection, schedule: Q01DX001 (ip), vehicle: saline 101 % of control

N#CC1(C#N)C2C=CC(C3CC=CC32)C1(C#N)C#N (configuration not stated)
inactive: dose: 3.13 mg/kg/injection, schedule: Q01DX009 (ip), vehicle: Klucel (hydroxypropylcellulose) (HPC) 106 % of control | dose: 6.25 mg/kg/injection, schedule: Q01DX009 (ip), vehicle: Klucel (hydroxypropylcellulose) (HPC) 98 % of control | dose: 12.5 mg/kg/injection, schedule: Q01DX009 (ip), vehicle: Klucel (hydroxypropylcellulose) (HPC) 110 % of control | dose: 25.0 mg/kg/injection, schedule: Q01DX009 (ip), vehicle: Klucel (hydroxypropylcellulose) (HPC) 108 % of control

CSC1C(=O)N2CCCc3cccc1c32 (configuration not stated)
inactive: [1] 105 % of control | [2] 96 % of control | [3] 96 % of control

O=C(O)c1cc(-c2ccncc2)nc2ccccc12
inactive: [5] 99 % of control | [6] 96 % of control | [7] 97 % of control

[Cl][Ge]([c]1ccccc1)[c]1ccccc1.c1cc[c]([GeH][c]2ccccc2)cc1
inactive: [5] 93 % of control | [6] 100 % of control | [7] 103 % of control

CC(=O)N=c1ccc2nc3c(cc(N)c4ccccc43)oc-2c1
inactive: dose: 10.0 mg/kg/injection, schedule: Q01DX005 (ip), vehicle: Klucel (hydroxypropylcellulose) (HPC) 98 % of control | dose: 20.0 mg/kg/injection, schedule: Q01DX005 (ip), vehicle: Klucel (hydroxypropylcellulose) (HPC) 100 % of control | dose: 40.0 mg/kg/injection, schedule: Q01DX005 (ip), vehicle: Klucel (hydroxypropylcellulose) (HPC) 98 % of control

COC1=CC2OC3OC(=O)CC3C2C(OCc2ccccc2)=C1 (configuration not stated)
inactive: [1] 91 % of control | [2] 88 % of control | [3] 90 % of control

O=C1C2C3C=CC(C2C(=O)N1CO)C1C2C(=O)N(CO)C(=O)C2C31 (configuration not stated)
inactive: dose: 12.5 mg/kg/injection, schedule: Q01DX009 (ip), vehicle: water 105 % of control
active: dose: 25.0 mg/kg/injection, schedule: Q01DX009 (ip), vehicle: water 157 % of control | [4] 195 % of control | dose: 50.0 mg/kg/injection, schedule: Q01DX009 (ip), vehicle: water 208 % of control

CCCC(NC(=O)OCc1ccccc1)C(=O)NC(CO)C(=O)O (configuration not stated) (Cbz-[Nva]-Ser-OH; configuration not given here)
inactive: [5] 94 % of control | [6] 108 % of control | [7] 94 % of control

c1ccc(CSc2ncnc3nc[nH]c23)cc1
inactive: dose: 12.5 mg/kg/injection, schedule: Q01DX010 (ip), vehicle: saline 100 % of control | dose: 25.0 mg/kg/injection, schedule: Q01DX010 (ip), vehicle: saline 100 % of control | dose: 50.0 mg/kg/injection, schedule: Q01DX010 (ip), vehicle: saline 90 % of control | dose: 100.0 mg/kg/injection, schedule: Q01DX010 (ip), vehicle: saline 90 % of control

O=[N+]([O-])c1cn(CCNc2c3ccccc3nc3ccccc23)cn1
inactive: [1] 112 % of control

Cc1c2c(C#N)nccc2c(C)c2c1c1ccccc1n2Cc1ccccc1
inactive: dose: 6.25 mg/kg/injection, schedule: Q04DX003 (ip), vehicle: distilled water + Tween-80 96 % of control | dose: 12.5 mg/kg/injection, schedule: Q04DX003 (ip), vehicle: distilled water + Tween-80 90 % of control | dose: 25.0 mg/kg/injection, schedule: Q04DX003 (ip), vehicle: distilled water + Tween-80 87 % of control | dose: 50.0 mg/kg/injection, schedule: Q04DX003 (ip), vehicle: distilled water + Tween-80 87 % of control | dose: 100.0 mg/kg/injection, schedule: Q04DX003 (ip), vehicle: distilled water + Tween-80 90 % of control | dose: 200.0 mg/kg/injection, schedule: Q04DX003 (ip), vehicle: distilled water + Tween-80 91 % of control

c1ccc(C[N+]23CCN(CC2)CC3)cc1
inactive: dose: 12.5 mg/kg/injection, schedule: Q04DX003 (ip), vehicle: saline 109 % of control | dose: 25.0 mg/kg/injection, schedule: Q04DX003 (ip), vehicle: saline 95 % of control | dose: 50.0 mg/kg/injection, schedule: Q04DX003 (ip), vehicle: saline 90 % of control

COC(=O)NC1C(=O)OC2C1CC1OC12 (configuration not stated)
inactive: [1] 101 % of control | [2] 100 % of control | [3] 101 % of control
